Columns and labels:
[1] = biological target: T1, Human Indoleamine 2,3-dioxygenase (IDO) (Homo sapiens, UniProt P14902); assay: Human IDO enzymatic assay (kynurenine level); type: biochemical; details: 6 nM IDO, 10 μM L-Trp; geometric mean; read-out: IDO1 GMean: IC50 (μM) (Biochemical Assay)
T1 construct: His tag (N); made in house; host or cells: E. coli
Outline: (§1)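 N-terminally His-tagged enzymes expressed in E. coli were run in 50 mM sodium phosphate pH 6.5 with 10 mM ascorbate, catalase and Tween 20. IDO: 6 nM enzyme, 10 μM L-Trp, 5 μM methylene blue, 20 min RT. TDO: 1 nM enzyme, 350 μM L-Trp, 0.4 μM methylene blue, 70 min RT.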

[2] = biological target: T2, Human Tryptophan 2,3-dioxygenase (TDO) (Homo sapiens, UniProt P48775); assay: Human TDO enzymatic assay (kynurenine level); type: biochemical; details: 1 nM TDO, 350 μM L-Trp; geometric mean; read-out: TDO GMean: IC50 (μM) (Biochemical Assay)
T2 construct: His tag (N); made in house; host or cells: E. coli
Outline: as §1

[3] = biological target: T3, human IDO (IDO1-expressing HEK293 cells) (Homo sapiens, UniProt P14902); assay: Cell based kynurenine assay, IDO1-expressing HEK293 cell clones; details: IDO1-expressing HEK293 cells, 24 hours incubation; geometric mean; read-out: HEK293 IDO1 Kynurenine GMean IC50 (μM) (Cellular Assay)
T3 construct: expressed in transfected cells
Outline: (§2)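 HEK293 stable clones (hIDO1 or hTDO, CMV-driven; G418-selected); 2.5×10^4 cells/well; compound serial dilution, 24 h, 37 °C, 5% CO2; supernatant kynurenine; IC50 by nonlinear fit.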

[4] = biological target: T4, human TDO (TDO-expressing HEK293 cells) (Homo sapiens, UniProt P48775); assay: Cell based kynurenine assay, TDO-expressing HEK293 cell clones; details: TDO-expressing HEK293 cells, 24 hours incubation; geometric mean; read-out: HEK293 TDO Kynurenine GMean IC50 (μM) (Cellular Assay)
T4 construct: expressed in transfected cells
Outline: as §2

T4 sequence (P48775 whole entry): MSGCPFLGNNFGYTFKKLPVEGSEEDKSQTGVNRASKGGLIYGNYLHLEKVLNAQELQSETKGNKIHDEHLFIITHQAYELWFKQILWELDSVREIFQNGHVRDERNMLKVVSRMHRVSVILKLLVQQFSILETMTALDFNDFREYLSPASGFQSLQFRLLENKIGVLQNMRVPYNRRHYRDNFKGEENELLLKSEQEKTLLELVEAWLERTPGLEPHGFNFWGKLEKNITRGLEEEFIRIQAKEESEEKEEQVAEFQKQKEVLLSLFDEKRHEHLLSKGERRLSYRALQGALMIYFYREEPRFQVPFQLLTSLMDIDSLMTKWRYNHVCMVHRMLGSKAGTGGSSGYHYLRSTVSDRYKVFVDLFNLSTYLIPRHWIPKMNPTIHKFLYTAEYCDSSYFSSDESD
T2 sequence (P48775 whole entry): as above
T3 sequence (P14902 whole entry): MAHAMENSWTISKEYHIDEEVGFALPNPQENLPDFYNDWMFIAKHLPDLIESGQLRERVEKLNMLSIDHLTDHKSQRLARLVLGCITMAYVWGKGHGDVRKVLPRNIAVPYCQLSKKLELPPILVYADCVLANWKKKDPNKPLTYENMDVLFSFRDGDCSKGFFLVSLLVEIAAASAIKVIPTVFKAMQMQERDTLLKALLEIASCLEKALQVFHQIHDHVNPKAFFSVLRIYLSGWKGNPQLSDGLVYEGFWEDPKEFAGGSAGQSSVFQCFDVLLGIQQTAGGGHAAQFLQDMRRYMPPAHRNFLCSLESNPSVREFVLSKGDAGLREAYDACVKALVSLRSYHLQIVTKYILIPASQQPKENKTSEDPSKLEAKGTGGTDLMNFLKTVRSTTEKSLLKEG
T1 sequence (P14902 whole entry): as above

IC50 [1] [µM] | IC50 [2] [µM] | IC50 [3] [µM] | IC50 [4] [µM] | SMILES
0.0001 to 10 | 0.0001 to 10 | 0.0001 to 10 | 0.0001 to 10 | CC(C)(C1CCOCC1)C(O)c1cc(Cl)cc2[nH]ncc12 (stereo not shown) [Compound P-0174, 1-(6-chloro-1H-indazol-4-yl)-2-methyl-2-(tetrahydro-2H-pyran-4-yl)propan-1-ol]
0.0001 to 10 | 0.0001 to 10 | 0.0001 to 10 | 0.0001 to 10 | CC(C)(C1CCN(C(=O)NCC(F)(F)F)CC1)C(O)c1cc(Cl)cc2cn[nH]c12 (stereo not shown) [Compound P-0175, 4-(1-(5-chloro-1H-indazol-7-yl)-1-hydroxy-2-methylpropan-2-yl)-N-(2,2,2-trifluoroethyl)piperidine-1-carboxamide]
0.0001 to 10 | 0.0001 to 10 | 0.0001 to 10 | 0.0001 to 10 | CC(C)(C1CCN(C(=O)NC2CC2)CC1)C(O)c1cc(Cl)cc2cn[nH]c12 (stereo not shown) [Compound P-0176, 4-(1-(5-chloro-1H-indazol-7-yl)-1-hydroxy-2-methylpropan-2-yl)-N-cyclopropylpiperidine-1-carboxamide]
0.0001 to 10 | 0.0001 to 10 | 0.0001 to 10 | 0.0001 to 10 | CC(C)(C1CCN(C(=O)OCC(F)(F)F)CC1)C(O)c1cc(Cl)cc2cn[nH]c12 (stereo not shown) [Compound P-0177, 2,2,2-trifluoroethyl 4-(1-(5-chloro-1H-indazol-7-yl)-1-hydroxy-2-methylpropan-2-yl)piperidine-1-carboxylate]
0.0001 to 10 | 0.0001 to 10 | 0.0001 to 10 | 0.0001 to 10 | CC(C)(C1CCN(C(=O)Nc2ccccc2F)CC1)C(O)c1cc(Cl)cc2cn[nH]c12 (stereo not shown) [Compound P-0178, 4-(1-(5-chloro-1H-indazol-7-yl)-1-hydroxy-2-methylpropan-2-yl)-N-(2-fluorophenyl)piperidine-1-carboxamide]
0.0001 to 10 | 0.0001 to 10 | 0.0001 to 10 | 0.0001 to 10 | COc1ccccc1NC(=O)N1CCC(C(C)(C)C(O)c2cc(Cl)cc3cn[nH]c23)CC1 (stereo not shown) [Compound P-0179, 4-(1-(5-chloro-1H-indazol-7-yl)-1-hydroxy-2-methylpropan-2-yl)-N-(2-methoxyphenyl)piperidine-1-carboxamide]
0.0001 to 10 | 0.0001 to 10 | 0.0001 to 10 | 0.0001 to 10 | CC(C)(C1CCN(C(=O)Nc2ccccc2C#N)CC1)C(O)c1cc(Cl)cc2cn[nH]c12 (stereo not shown) [Compound P-0180, 4-(1-(5-chloro-1H-indazol-7-yl)-1-hydroxy-2-methylpropan-2-yl)-N-(2-cyanophenyl)piperidine-1-carboxamide]
0.0001 to 10 | 0.0001 to 10 | 0.0001 to 10 | 0.0001 to 10 | Cc1cccc(NC(=O)N2CCC(C(C)(C)C(O)c3cc(Cl)cc4cn[nH]c34)CC2)c1 (stereo not shown) [Compound P-0181, 4-(1-(5-chloro-1H-indazol-7-yl)-1-hydroxy-2-methylpropan-2-yl)-N-(m-tolyl)piperidine-1-carboxamide]
0.0001 to 10 | 0.0001 to 10 | 0.0001 to 10 | 0.0001 to 10 | COc1cccc(NC(=O)N2CCC(C(C)(C)C(O)c3cc(Cl)cc4cn[nH]c34)CC2)c1 (stereo not shown) [Compound P-0182, 4-(1-(5-chloro-1H-indazol-7-yl)-1-hydroxy-2-methylpropan-2-yl)-N-(3-methoxyphenyl)piperidine-1-carboxamide]
0.0001 to 10 | 0.0001 to 10 | 0.0001 to 10 | 0.0001 to 10 | COc1ccc(NC(=O)N2CCC(C(C)(C)C(O)c3cc(Cl)cc4cn[nH]c34)CC2)cc1 (stereo not shown) [Compound P-0183, 4-(1-(5-chloro-1H-indazol-7-yl)-1-hydroxy-2-methylpropan-2-yl)-N-(4-methoxyphenyl)piperidine-1-carboxamide]
0.0001 to 10 | 0.0001 to 10 | 0.0001 to 10 | 0.0001 to 10 | CC(C)(C1CCN(C(=O)Nc2ccccc2Cl)CC1)C(O)c1cc(Cl)cc2cn[nH]c12 (stereo not shown) [Compound P-0184, 4-(1-(5-chloro-1H-indazol-7-yl)-1-hydroxy-2-methylpropan-2-yl)-N-(2-chlorophenyl)piperidine-1-carboxamide]
0.0001 to 10 | 0.0001 to 10 | 0.0001 to 10 | 0.0001 to 10 | O=C(NC1CC1)N1CCC(C(F)(F)C(O)c2cc(Cl)cc3cn[nH]c23)CC1 (stereo not shown) [Compound P-0185, 4-(2-(5-chloro-1H-indazol-7-yl)-1,1-difluoro-2-hydroxyethyl)-N-cyclopropylpiperidine-1-carboxamide]
0.0001 to 10 | 0.0001 to 10 | 0.0001 to 10 | 0.0001 to 10 | OC(c1cc(Cl)cc2cn[nH]c12)C1(C2CCC2)CCC1 (stereo not shown) [Compound P-0186, [1,1′-bi(cyclobutan)]-1-yl(5-chloro-1H-indazol-7-yl)methanol]
0.0001 to 10 | 0.0001 to 10 | 0.0001 to 10 | 0.0001 to 10 | OC(c1cc(Cl)cc2cn[nH]c12)C1(C2CCCCC2)CC1 (stereo not shown) [Compound P-0187, (5-chloro-1H-indazol-7-yl)(1-cyclohexylcyclopropyl)methanol]
0.0001 to 10 | 0.0001 to 10 | 0.0001 to 10 | > 10 | OC(c1cc(Cl)cc2cn[nH]c12)C1(Cc2cccc(F)c2)CCC1 (stereo not shown) [Compound P-0188, (5-chloro-1H-indazol-7-yl)(1-(3-fluorobenzyl)cyclobutyl)methanol]
> 200 | > 200 | > 10 | 0.0001 to 10 | O=S1(=O)CC(O)(c2cc(Cl)cc3cn[nH]c23)C1 [Compound P-0189, 3-(5-chloro-1H-indazol-7-yl)-3-hydroxythietane 1,1-dioxide]
0.0001 to 10 | 0.0001 to 10 | 0.0001 to 10 | 0.0001 to 10 | CC1(C)[C@H]2CCC3(CC(O)(c4cc(Cl)cc5cn[nH]c45)C3)[C@@H]1C2 (stereo partly shown) [Compound P-0190]
0.0001 to 10 | 0.0001 to 10 | 0.0001 to 10 | 0.0001 to 10 | CC(C)(C1CCOCC1)C(O)c1cc(Cl)cc2cn[nH]c12 (stereo not shown) [Compound P-0191, 1-(5-chloro-1H-indazol-7-yl)-2-methyl-2-(tetrahydro-2H-pyran-4-yl)propan-1-ol]
0.0001 to 10 | 0.0001 to 10 | 0.0001 to 10 | 0.0001 to 10 | OC(c1cc(Cl)cc2cn[nH]c12)C(F)(F)C1CCOCC1 (stereo not shown) [Compound P-0192, 1-(5-chloro-1H-indazol-7-yl)-2,2-difluoro-2-(tetrahydro-2H-pyran-4-yl)ethan-1-ol]
0.0001 to 10 | 0.0001 to 10 | 0.0001 to 10 | 0.0001 to 10 | CC1(C)C2CCC(C2)[C@]12C[C@@](O)(c1cc(Cl)cc3cn[nH]c31)C2 (stereo partly shown) [Compound P-0193, (2s,3′s)-3′-(5-chloro-1H-indazol-7-yl)-3,3-dimethylspiro[bicyclo[2.2.1]heptane-2,1′-cyclobutan]-3′-ol]
0.0001 to 10 | 0.0001 to 10 | 0.0001 to 10 | 0.0001 to 10 | OC(c1cc(Cl)cc2cn[nH]c12)C1(C(F)F)CCC1 (stereo not shown) [Compound P-0194, (5-chloro-1H-indazol-7-yl)(1-(difluoromethyl)cyclobutyl)methanol]
0.0001 to 10 | 0.0001 to 10 | 0.0001 to 10 | 0.0001 to 10 | OC(c1cc(Cl)cc2cn[nH]c12)C1CC2(CCC2)C1 (stereo not shown) [Compound P-0195, (5-chloro-1H-indazol-7-yl)(spiro[3.3]heptan-2-yl)methanol]
0.0001 to 10 | 0.0001 to 10 | 0.0001 to 10 | 0.0001 to 10 | CC1(C)CC(C(O)c2cc(Cl)cc3cn[nH]c23)C1 (stereo not shown) [Compound P-0196, (5-chloro-1H-indazol-7-yl)(3,3-dimethylcyclobutyl)methanol]
0.0001 to 10 | 0.0001 to 10 | 0.0001 to 10 | 0.0001 to 10 | OCC1CCC(C(O)c2cc(Cl)cc3cn[nH]c23)CC1 (stereo not shown) [Compound P-0197, (5-chloro-1H-indazol-7-yl)(4-(hydroxymethyl)cyclohexyl)methanol]
0.0001 to 10 | 0.0001 to 10 | 0.0001 to 10 | 0.0001 to 10 | CC(C)(C1CCN(S(C)(=O)=O)CC1)C(O)c1cc(Cl)cc2cn[nH]c12 (stereo not shown) [Compound P-0198, 1-(5-chloro-1H-indazol-7-yl)-2-methyl-2-(1-(methylsulfonyl)piperidin-4-yl)propan-1-ol]
0.0001 to 10 | 0.0001 to 10 | 0.0001 to 10 | 0.0001 to 10 | CC(C)(C1CCCC1)C(O)c1cc(Cl)cc2cn[nH]c12 (stereo not shown) [Compound P-0199, 1-(5-chloro-1H-indazol-7-yl)-2-cyclopentyl-2-methylpropan-1-ol]
0.0001 to 10 | 0.0001 to 10 | > 10 | > 10 | OC1(c2cc(Cl)cc3cn[nH]c23)CC(c2ccccc2)C1 (stereo not shown) [Compound P-0201, 1-(5-chloro-1H-indazol-7-yl)-3-phenylcyclobutan-1-ol]
10 to 100 | 0.0001 to 10 | > 10 | > 10 | CC(C)(CN1CCCC1)C(O)c1cc(Cl)cc2cn[nH]c12 (stereo not drawn) [Compound P-0202, 1-(5-chloro-1H-indazol-7-yl)-2,2-dimethyl-3-(pyrrolidin-1-yl)propan-l-ol]

Source: US10508085B2, “Compounds and methods for IDO and TDO modulation, and indications therefor” (Plexxikon Inc., priority 2016, dated 2019)
